From publication PMC11095988, “The Molecular Mechanism of FABP4 Inhibition Effects of GAS and 4-HBA in Gastrodia elata Blume Was Discussed Based on NMR and Molecular Docking” (Journal of Analytical Methods in Chemistry, 2024)
Blank lines part the entries; values can stand above or below the compound they belong to.

Key:
FABP4 [1] = biological target: T1, FABP4 (Homo sapiens, UniProt P15090); experiment: fluorescent probe, emission shift on binding to FABP4
T1 sequence (P15090 2-132): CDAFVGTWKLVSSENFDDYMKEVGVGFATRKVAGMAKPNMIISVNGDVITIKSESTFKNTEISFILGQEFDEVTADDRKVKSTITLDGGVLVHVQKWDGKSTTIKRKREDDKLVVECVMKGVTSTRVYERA

FABP4 [2] = biological target: T1, FABP4; experiment: fluorescence displacement; STD-NMR (weak signal) and ligand-observed 1H-NMR; assay type: binding
FABP4 [3] = biological target: T1, FABP4; experiment: fluorescence displacement; STD-NMR and ligand-observed 1H-NMR; assay type: binding

Compound: O=S(=O)(O)c1cccc2cccc(Nc3ccccc3)c12 [1,8-ANS, 8-anilino-1-naphthalenesulfonic acid]
fluorescent probe, emission shift on binding to FABP4 (FABP4 [1]): When ANS binds to FABP4, its maximum emission light will be blue-shifted

IC50 (FABP4 [2]): 50.5 µM
Compound: OCc1ccc(O)cc1 [4-HBA, 4-hydroxybenzyl alcohol]

Compound: OCc1ccc(O[C@@H]2O[C@H](CO)[C@@H](O)[C@H](O)[C@H]2O)cc1 [GAS, gastrodin]
IC50 (FABP4 [3]): 29.8 µM
